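All cell lines were grown in 96-well plates and treated with compound for 48 hours. Here, GI50 denotes the concentration required for 50% inhibition of growth. TGI denotes the concentration required for complete inhibition of growth.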 Where only a bound is given, the exact number is not on record here.

Among the test systems are CCRF-CEM leukemia; HOP-18 NSCLC; IGROV1 ovarian; RXF 393 renal; SK-OV-3 ovarian; SNB-19 CNS; SW-620 colon; A498 renal; DMS 114 small cell lung; T-47D breast.
Common to all, as to assay: NCI tumour cell line growth inhibition, 48 h

As for `N.N.N.N.N.O=C([O-])c1nn[n-]n1.[Cl-].[Co+3]`, the GI50 in the assay with CCRF-CEM leukemia, in the assay with HOP-18 NSCLC, in the assay with IGROV1 ovarian, in the assay with RXF 393 renal, with SK-OV-3 ovarian and in the assay with SNB-19 CNS was over 100 µM in each case. Besides, the GI50 in the assay on SW-620 colon was over 100 µM. In addition, the TGI in the assay on CCRF-CEM leukemia, in the assay with HOP-18 NSCLC, in the assay with IGROV1 ovarian, with RXF 393 renal, with SK-OV-3 ovarian and in the assay with SNB-19 CNS was over 100 µM in each case. The molecule also yielded a TGI with SW-620 colon of over 100 µM.

As for `O=C(O)CN(c1ccccc1)S(=O)(=O)c1ccccc1[N+](=O)[O-]`, the TGI in the assay with A498 renal, with CCRF-CEM leukemia, in the assay on HOP-18 NSCLC, in the assay with IGROV1 ovarian, with RXF 393 renal and in the assay with SK-OV-3 ovarian was over 100 µM each time. Besides, the TGI in the assay with SNB-19 CNS and in the assay on SW-620 colon was over 100 µM in each case.

In the case of `Nc1ccc(/C=C/c2ccnc3ccccc23)cc1`, the TGI was 40.7 µM in the assay with CCRF-CEM leukemia; 45.8 µM with DMS 114 small cell lung; over 100 µM with IGROV1 ovarian; 79.3 µM in the assay with SNB-19 CNS; 97.7 µM with SW-620 colon.

For the molecule `Cc1ccccc1N(CCC#N)C1=NN(C(=O)CC(=O)Nc2ccccc2)C(c2ccccc2)C1` (stereo not drawn), the TGI in the assay with CCRF-CEM leukemia, in the assay on HOP-18 NSCLC, with IGROV1 ovarian, in the assay on RXF 393 renal, with SK-OV-3 ovarian and in the assay on SNB-19 CNS was over 100 µM in each case. The same molecule gave a TGI with SW-620 colon of over 100 µM.

For `Cn1cc(C(=O)c2ccccc2)ccc1=O`, the TGI in the assay on CCRF-CEM leukemia, in the assay on DMS 114 small cell lung, in the assay with IGROV1 ovarian, in the assay on RXF 393 renal, in the assay with SK-OV-3 ovarian and with SNB-19 CNS was over 100 µM each time. The same molecule registered a TGI in the assay with SW-620 colon of over 100 µM.

Consider `CN(C)P(=O)(/C(N)=N/Nc1ccc([N+](=O)[O-])cc1)N(C)C`, for which the TGI in the assay on CCRF-CEM leukemia, with DMS 114 small cell lung, in the assay on SNB-19 CNS and with SW-620 colon was over 100 µM each time.

As for `COc1ccc2c(c1)CCC1C3(CCCC21C)OCCO3` (stereo not drawn), the TGI in the assay on A498 renal stood at 82.6 µM; in the assay on CCRF-CEM leukemia, 40.6 µM; in the assay on HOP-18 NSCLC, 64.8 µM; in the assay on IGROV1 ovarian, 79.4 µM; with RXF 393 renal it was 31.1 µM; with SK-OV-3 ovarian, 60.9 µM. Also, the TGI with SNB-19 CNS is over 100 µM; with SW-620 colon it was 96.2 µM.

Turning to `CC/C=C\C[C@@H]1C/C=C2/C(=O)C=C[C@H]2C/C=C\CCCC(=O)O1`, the GI50 in the assay on A498 renal is 1.81 µM; with CCRF-CEM leukemia it was 0.24 µM; in the assay on IGROV1 ovarian, 0.91 µM; in the assay with RXF 393 renal, 0.492 µM; in the assay on SK-OV-3 ovarian, 2.49 µM; with SNB-19 CNS it was 1.25 µM. In addition, the GI50 in the assay on SW-620 colon was 0.483 µM; in the assay with T-47D breast, 1.6 µM. Besides, the TGI in the assay on A498 renal turned out to be 3.3 µM; with CCRF-CEM leukemia it was 1.58 µM; with IGROV1 ovarian, 3.93 µM; in the assay with RXF 393 renal it was 1.73 µM; in the assay on SK-OV-3 ovarian it was 7.94 µM; in the assay on SNB-19 CNS, 3.36 µM. The TGI is 2.02 µM with SW-620 colon and 6.28 µM in the assay on T-47D breast.

Take `Cc1cc(C)c(C(=O)CC(=O)c2cccnc2)c(C)c1`: the GI50 in the assay on A498 renal was 18.8 µM; with CCRF-CEM leukemia, 4.1 µM; in the assay with IGROV1 ovarian, 4.39 µM; in the assay with RXF 393 renal, 10.7 µM; in the assay with SK-OV-3 ovarian it was 9.04 µM; with SNB-19 CNS, 6.34 µM. The figures for the GI50 with SW-620 colon and with T-47D breast were 4.72 µM and 10.2 µM, respectively. In addition, the TGI in the assay with A498 renal was 94.1 µM; in the assay with CCRF-CEM leukemia it was 45.8 µM; in the assay with IGROV1 ovarian, over 100 µM; in the assay on RXF 393 renal, 60.2 µM; in the assay with SK-OV-3 ovarian it was over 100 µM; in the assay on SNB-19 CNS, over 100 µM. Also, the TGI in the assay with SW-620 colon and with T-47D breast was over 100 µM in each case.

In the case of `Nc1ncc(-c2cnn(CCO)c2)c2scc(-c3ccc(NC(=O)Nc4cccc(F)c4)cc3)c12`, the GI50 was 0.122 µM in the assay on A498 renal; under 0.01 µM in the assay with CCRF-CEM leukemia; 0.285 µM with IGROV1 ovarian; 0.241 µM with RXF 393 renal; 0.338 µM in the assay with SK-OV-3 ovarian; 1.04 µM with SNB-19 CNS. For the same molecule, the GI50 in the assay on SW-620 colon is 0.179 µM; with T-47D breast it was 1.32 µM. In addition, the TGI in the assay with A498 renal turned out to be 0.663 µM; in the assay with CCRF-CEM leukemia, 5.01 µM; with IGROV1 ovarian it was 2.61 µM; in the assay with RXF 393 renal, 1.13 µM; in the assay on SK-OV-3 ovarian, 3.99 µM; in the assay on SNB-19 CNS, 9.16 µM. Besides, the TGI turned out to be 3.74 µM in the assay with SW-620 colon and 5.93 µM in the assay with T-47D breast.

Consider `COc1ccc2c(c1)C(=O)c1c-2n(CCCn2ccnc2)c(=O)c2ccccc12`, for which the GI50 with A498 renal was 0.471 µM; with CCRF-CEM leukemia it was 0.213 µM; in the assay with IGROV1 ovarian, 0.204 µM; in the assay on RXF 393 renal it was 0.431 µM; in the assay with SK-OV-3 ovarian it was 0.595 µM; in the assay on SNB-19 CNS, 0.293 µM. Also, the GI50 in the assay on SW-620 colon was 0.247 µM; in the assay on T-47D breast, 0.399 µM. The TGI in the assay on A498 renal is 1.76 µM; in the assay with CCRF-CEM leukemia, 24.8 µM; in the assay on IGROV1 ovarian it was 2.55 µM; in the assay on RXF 393 renal, 2 µM; with SK-OV-3 ovarian, 4.59 µM; in the assay with SNB-19 CNS, over 46.5 µM. Moreover, the TGI was 7.59 µM in the assay with SW-620 colon and 5.68 µM with T-47D breast.

For the molecule `COc1ccc(C(=O)COc2cccc(/C=C3\COc4ccc5ccccc5c4C3=O)c2)cc1`, the GI50 was 12.2 µM in the assay with A498 renal; 1.92 µM in the assay on CCRF-CEM leukemia; 17.4 µM in the assay on IGROV1 ovarian; 9.8 µM in the assay on RXF 393 renal; 82.2 µM in the assay on SK-OV-3 ovarian; 9.37 µM with SNB-19 CNS. Besides, the GI50 with SW-620 colon is 3.33 µM; in the assay on T-47D breast, 3.88 µM. In addition, the TGI in the assay on A498 renal was 87 µM; in the assay with CCRF-CEM leukemia, 6.26 µM; in the assay with IGROV1 ovarian, over 100 µM; in the assay with RXF 393 renal it was over 100 µM; with SK-OV-3 ovarian, over 100 µM; in the assay with SNB-19 CNS, over 100 µM. In addition, the TGI was 13.7 µM in the assay on SW-620 colon and over 100 µM in the assay on T-47D breast.

These data come from PubChem BioAssay (NCI).
